Test results: US11021688B2, “Derivation of human skin organoids from pluripotent stem cells” (INDIANA UNIVERSITY RESEARCH AND TECHNOLOGY CORPORATION, priority 2015, dated 2021)

Legend:
Format in all cases: cell-based, human
[1] = system: hPSC-derived skin organoids; assay: Pigmentation of hair follicles in skin organoids; conditions: pre-treated during days 8-12
Description: After 4 days of incubation, 25 μl of CDM containing a 250 ng ml^−1 FGF-2 (50 ng/ml final concentration) and 1 μM LDN-193189 (200 nM final concentration) was added to the pre-existing 100 μl of media in each well. After an additional 4 days (8 days total), 250 of CDM was added to the media. For some experiments, CDM containing 18 μM CHIR99021 (3 μM final concentration; Stemgent) was added to the pre-existing 125 μl of media in each well. During day 12 transfer to OMM, aggregates were resuspended in ice cold undiluted GFR Matrigel and placed in approximately 25 μl droplets on the surface of a 100 mm bacterial culture plate. After at least 30 minutes of incubation at 37° C., the droplets were bathed in 10 ml of OMM. To avoid Matrigel droplet induction, the aggregates can be washed and plated individually into each well of a 24-well low cell adhesion plate in OMM containing 1% GFR Matrigel. After 18 days of differentiation, the CHIR was removed from the medium by washing and the droplet aggregates were moved to a floating culture. Droplets were carefully dislodged using a wide-mouth 1000P tip and transferred to 75 ml of fresh OMM in a 125 ml disposable spinner flask (Corning). Spinner flasks were maintained on an in-incubator stir plate (Thermo Scientific) at 65 RPM for up to 180 days of differentiation. […]

hPSC-derived aggregates [2] = assay: Structures formed under treatment plans during days 0-12 of differentiation; conditions: treatment after initial 10 μM SB+4 ng/ml FGF; with or without insulin
Source text: A-b, Treatment conditions during days 0-12 were: no treatment (NT), LDN (from d4-d12), LDN/FGF (from d4-d12), and LDN/FGF (from d4-d12)+CHIR (from d8-d12). From days 22-55, skin organoids formed in LDN/FGF and LDN/FGF/CHIR conditions with or without insulin. […] We detached the droplet embedded aggregates from the plate and placed them in a rotating or shaking floating culture in OMM for up to 60 days. By 30-55 days of culture, skin organoids consisted of KRT5^+ basal keratinocytes and PDGFRa^+ dermal fibroblasts (FIGS. 7A-7C). The skin organoids developed as a cyst with an inner layer of epidermis and an outer layer of dermis. We next wondered what mechanism controlled the induction of skin organoids and tested various treatment plans with or without insulin in the CDM during days 0-12 of differentiation (FIGS. 8A-8B). After 12 days, the aggregates were transferred to Matrigel in OMM as previously mentioned. […] Intriguingly, without insulin, the skin organoids were 2.5-3.5 times larger on average than insulin treated aggregates. We chose to continue our analysis with FGF/LDN and FGF/LDN/CHIR (without insulin) treated aggregates.

[3] = system: WA25 hESC and mND2-0 hiPSC aggregates; assay: Keratinocyte (non-neural ectoderm) induction in hPSC aggregates in 3D culture; conditions: n=40 aggregates per cell line across 4 experiments
Description: We sought to develop a novel human non-neural induction protocol that could generate skin organoids. Human pluripotent stem cells of the WA25 cell line were dissociated in Essential 8 (E8) culture medium into single cells. Approximately 5000 cells were plated in each well of a 96-well V-bottom plate. Following 24 hours in culture, pluripotent cell aggregates that formed were transferred to 96-well U-bottom plates and cultured in a differentiation medium in the presence of Matrigel. This was considered “day 0” of differentiation (see FIG. 1). In comparing our mouse pluripotent stem cell (mPSC) system with our human (hPSC) system, it was observed that hPSCs appear to produce different endogenous signaling molecules that must be added as exogenous factors for mPSC cultures. Assays were performed to identify key factors dictating non-neural ectoderm induction in hPSC aggregates. It was determined that treating hPSC aggregates with the TGF signaling inhibitor SB-431542 in a chemically-defined medium with or without a low concentration of BMP4 (<5 ng/ml) (CDM; Table 1) produces a surface epithelium of TFAP2^+ (AP2) non-neural ectoderm cells (FIGS. 3A-3F). After a 10-12 day incubation, the aggregates were transferred to a floating culture on low-cell attachment plates in organoid maturation medium (OMM; see Table 2). […]

[4] = system: hPSC-derived skin organoids; assay: Skin organoid size with or without insulin in the differentiation medium; conditions: LDN/FGF and LDN/FGF/CHIR conditions; n=6 organoids/condition
Source text: A-b, Treatment conditions during days 0-12 were: no treatment (NT), LDN (from d4-d12), LDN/FGF (from d4-d12), and LDN/FGF (from d4-d12)+CHIR (from d8-d12). From days 22-55, skin organoids formed in LDN/FGF and LDN/FGF/CHIR conditions with or without insulin.
We detached the droplet embedded aggregates from the plate and placed them in a rotating or shaking floating culture in OMM for up to 60 days. By 30-55 days of culture, skin organoids consisted of KRT5^+ basal keratinocytes and PDGFRa^+ dermal fibroblasts (FIGS. 7A-7C). The skin organoids developed as a cyst with an inner layer of epidermis and an outer layer of dermis. We next wondered what mechanism controlled the induction of skin organoids and tested various treatment plans with or without insulin in the CDM during days 0-12 of differentiation (FIGS. 8A-8B). After 12 days, the aggregates were transferred to Matrigel in OMM as previously mentioned. […] Intriguingly, without insulin, the skin organoids were 2.5-3.5 times larger on average than insulin treated aggregates. We chose to continue our analysis with FGF/LDN and FGF/LDN/CHIR (without insulin) treated aggregates.

hPSC-derived aggregates [5] = assay: Mesoderm induction (Brachyury immunohistochemistry) in hPSC aggregates
Description: Representative Brachyury (BRA) immunohistochemistry in day 4 aggregates treated with 10 ng/ml BMP4 (a), 10 μM SB (b), and 10 μM SB+2.5 ng/ml BMP4 (c) on day 0. Scale bars, 50 μm.
With human PSCs, TGFβ inhibition and endogenous BMP signaling promotes formation of TFAP2+ ECAD+ surface ectoderm by 3-6 days of differentiation.

Cc1c[nH]c(-c2cnc(NCCNc3ccc(C#N)cn3)nc2-c2ccc(Cl)cc2Cl)n1 [CHIR99021]
organoids producing pigmented hair follicles [1]: 75%

c1ccc2c(-c3cnn4cc(-c5ccc(N6CCNCC6)cc5)cnc34)ccnc2c1 [LDN, LDN-193189]
structures formed by aggregates (hPSC-derived aggregates [2]): primarily formed keratinocyte cyts

NC(=O)c1ccc(-c2nc(-c3ccc4c(c3)OCO4)c(-c3ccccn3)[nH]2)cc1 [SB, SB-431542]
aggregates generating a 3D spheroid comprising TFAP2+KRT5+ keratinocytes [3]: 100%

insulin: insulin component of the chemically-defined differentiation medium (CDM)
size (long-axis diameter) of skin organoids in insulin-free conditions relative to conditions with insulin [4]: 2.5-3.5 times

B1: bone morphogenetic protein-4 (protein, UniProt P12644 293-408, looked up)
Bone morphogenetic protein 4: SPKHHSQRARKKNKNCRRHSLYVDFSDVGWNDWIVAPPGYQAFYCHGDCPFPLADHLNSTNHAIVQTLVNSVNSSIPKACCVPTELSAISMLYLDEYDKVVLKNYQEMVVEGCGCR
notes: agonist of BMP signaling
induction of mesodermal (BRA+) cells (hPSC-derived aggregates [5]; BMP treatment alone): mesoderm is induced
induction of mesodermal (Brachyury+) cells (hPSC-derived aggregates [5]; low concentration of BMP-4 during non-neural ectoderm induction): not induced
